Assay results reported in paper PMC7998700, “Mycobacterial Epoxide Hydrolase EphD Is Inhibited by Urea and Thiourea Derivatives” (International Journal of Molecular Sciences, 2021).

Key:
EphG = EphG (Mycobacterium tuberculosis, UniProt O33283)
EphD [1] = biological target: T1, EphD (Mycobacterium tuberculosis, UniProt P9WGS3)
EphE = EphE (Mycobacterium tuberculosis, UniProt I6YCQ4)
EphB = EphB (Mycobacterium tuberculosis, UniProt I6YC03); assay: radio-TLC substrate conversion to diol, E. coli lysate supernatant; assay type: biochemical; conditions: 50 mM Tris-HCl pH 7.5, 37 °C; labelled compound
EphB, sequence (I6YC03 whole entry): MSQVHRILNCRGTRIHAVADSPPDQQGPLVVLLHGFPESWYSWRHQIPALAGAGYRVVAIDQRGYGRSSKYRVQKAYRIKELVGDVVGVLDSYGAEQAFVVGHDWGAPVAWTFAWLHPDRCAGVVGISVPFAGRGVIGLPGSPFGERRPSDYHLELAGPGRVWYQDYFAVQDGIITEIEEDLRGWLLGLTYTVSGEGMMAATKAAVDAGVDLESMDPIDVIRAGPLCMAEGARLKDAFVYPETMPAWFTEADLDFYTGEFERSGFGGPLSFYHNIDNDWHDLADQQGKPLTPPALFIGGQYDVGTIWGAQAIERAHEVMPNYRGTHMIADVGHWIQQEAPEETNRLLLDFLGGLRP

EphF [2] = biological target: T2, EphF (Mycobacterium tuberculosis, UniProt P96811)
T2 sequence (P96811 entry or part of it): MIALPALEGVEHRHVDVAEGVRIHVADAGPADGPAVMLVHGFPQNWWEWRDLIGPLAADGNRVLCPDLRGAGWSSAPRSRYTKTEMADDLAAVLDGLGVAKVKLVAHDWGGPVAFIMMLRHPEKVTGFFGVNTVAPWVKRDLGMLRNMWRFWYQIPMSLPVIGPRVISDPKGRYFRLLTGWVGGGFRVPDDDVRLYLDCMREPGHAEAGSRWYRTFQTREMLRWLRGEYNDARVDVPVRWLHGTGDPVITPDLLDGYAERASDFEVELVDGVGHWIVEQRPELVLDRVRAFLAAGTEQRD

EphA = EphA (Mycobacterium tuberculosis, UniProt I6YGS0)
EphA, sequence (I6YGS0 whole entry): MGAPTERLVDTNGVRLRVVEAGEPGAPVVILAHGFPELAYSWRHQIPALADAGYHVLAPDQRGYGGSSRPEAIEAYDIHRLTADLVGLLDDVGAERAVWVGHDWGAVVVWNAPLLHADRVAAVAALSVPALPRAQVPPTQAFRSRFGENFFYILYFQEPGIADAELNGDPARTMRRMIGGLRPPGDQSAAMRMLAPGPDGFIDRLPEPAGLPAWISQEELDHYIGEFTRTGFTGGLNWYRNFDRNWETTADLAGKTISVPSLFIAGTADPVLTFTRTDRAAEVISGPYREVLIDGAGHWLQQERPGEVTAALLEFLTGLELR

EphF [3] = biological target: T2, EphF; assay: radio-TLC epoxide hydrolase assay, E. coli lysate supernatant; assay type: biochemical; conditions: substrate [14C]-9,10-cis-epoxystearic acid; 50 mM Tris-HCl pH 7.5, 37 °C, 15 min; without EthA; 2% DMSO
EphD [4] = biological target: T1, EphD; assay: as above; assay type: biochemical; conditions: substrate [14C]-9,10-cis-epoxystearic acid; 50 mM Tris-HCl pH 7.5, 37 °C, 15 min; without EthA; 2% DMSO

T1 sequence (P9WGS3 whole entry): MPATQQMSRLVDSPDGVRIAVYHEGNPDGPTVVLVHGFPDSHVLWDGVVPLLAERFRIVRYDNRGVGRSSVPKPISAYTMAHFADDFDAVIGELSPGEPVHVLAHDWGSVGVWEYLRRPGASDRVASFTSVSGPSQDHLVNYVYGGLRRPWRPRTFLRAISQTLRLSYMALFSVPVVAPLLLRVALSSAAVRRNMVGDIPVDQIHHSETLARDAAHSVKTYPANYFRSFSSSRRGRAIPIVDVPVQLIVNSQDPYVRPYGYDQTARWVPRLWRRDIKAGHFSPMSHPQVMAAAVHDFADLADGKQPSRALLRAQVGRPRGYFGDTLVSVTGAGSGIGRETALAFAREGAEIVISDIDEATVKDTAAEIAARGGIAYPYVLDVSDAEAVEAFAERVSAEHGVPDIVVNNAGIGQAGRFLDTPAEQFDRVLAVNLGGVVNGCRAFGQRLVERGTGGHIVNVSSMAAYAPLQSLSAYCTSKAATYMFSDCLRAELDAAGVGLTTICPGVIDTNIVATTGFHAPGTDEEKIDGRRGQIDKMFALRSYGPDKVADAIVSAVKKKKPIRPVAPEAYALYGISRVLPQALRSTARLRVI
EphG, sequence (O33283 whole entry): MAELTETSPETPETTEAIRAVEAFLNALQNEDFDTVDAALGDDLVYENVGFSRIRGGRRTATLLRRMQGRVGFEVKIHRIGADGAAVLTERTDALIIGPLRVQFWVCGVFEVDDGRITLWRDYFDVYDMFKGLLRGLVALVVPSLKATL
EphE, sequence (I6YCQ4 entry or part of it): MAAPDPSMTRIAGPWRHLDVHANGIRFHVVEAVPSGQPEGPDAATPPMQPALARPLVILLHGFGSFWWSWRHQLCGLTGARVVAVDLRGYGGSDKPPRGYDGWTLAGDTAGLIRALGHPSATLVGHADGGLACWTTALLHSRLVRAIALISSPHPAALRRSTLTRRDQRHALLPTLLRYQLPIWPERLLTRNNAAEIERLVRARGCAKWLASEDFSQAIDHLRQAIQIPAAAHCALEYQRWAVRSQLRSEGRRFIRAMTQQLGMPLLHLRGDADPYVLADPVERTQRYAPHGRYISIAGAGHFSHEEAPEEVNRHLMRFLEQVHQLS

Row | SMILES | radio-TLC substrate conversion to diol, E. coli lysate supernatant (EphG) | radio-TLC substrate conversion to diol, E. coli lysate supernatant (EphD [1]) | radio-TLC substrate conversion to diol, E. coli lysate supernatant (EphE) | radio-TLC substrate conversion to diol, E. coli lysate supernatant (EphB) | radio-TLC substrate conversion to diol, E. coli lysate supernatant (EphF [2]) | radio-TLC substrate conversion to diol, E. coli lysate supernatant (EphA) | % inhibition at 10 μg/mL (EphF [3]) | % inhibition at 10 μg/mL (EphD [4])
1 | CCCCCCCC[C@H]1O[C@H]1CCCCCCCC(=O)O [9,10-cis-epoxystearic acid] | The EH activity in each reaction was expressed as a substrate conversion percentage | The EH activity in each reaction was expressed as a substrate conversion percentage | The EH activity in each reaction was expressed as a substrate conversion percentage | The EH activity in each reaction was expressed as a substrate conversion percentage | The EH activity in each reaction was expressed as a substrate conversion percentage | The EH activity in each reaction was expressed as a substrate conversion percentage |  | 
2 | CC(C)CCOc1ccc(NC(=S)Nc2ccc(OCCC(C)C)cc2)cc1 [ISO, 4,4′-diisoamyloxydiphenylthiourea] |  |  |  |  |  |  | The activities of EphD and EphF are inhibited by ISO | The activities of EphD and EphF are inhibited by ISO
